Assay results published in patent publication US20260167623A1 (NIKANG THERAPEUTICS, INC., priority 2022, published 2026).

Molecular target: T1, CDK2 (Homo sapiens, UniProt P24941)
T1 construct: High-Throughput Measurement of Cellular Endogenous CDK2; endogenous in cells; host or cells: OVCAR3
Test: Inhibition of CDK2: phospho-Rb (S807/811) HTRF measurement in OVCAR3 cells, 24 h
Type: cell-based
Details: 24 h compound treatment, read-out: pRB_OVCAR3_24h
Description: Inhibition of CDK2: Phospho-R^b Measurement in Cells
Phosphorylation of RB protein at S807/811 were measured using HTRF phospho-RB cellular kits (Cat #64RBS807PEG) from Cisbio.
On Day 1, OVCAR3 (CDK2 dependent cell line) cells were seeded into 96-well tissue-culture treated plates at 20,000 cells/well in 200 μL and incubated overnight at 37° C. in CO2 atmosphere. On Day 2, the cells were treated with test compounds at concentrations from 0.3 to 10,000 nM using HP D300 digital dispenser. Twenty-four hours after compound treatment, cell culture media is removed by flicking the plate and tapping the plate against clean paper towel. 30 μL 1× lysis buffer was supplemented from the kit was added to each well and the plate was incubated at room temperature on shaker for 30 min. After homogenization by pipetting up and down, 8 μL cell lysate from 96-well cell culture plate was transferred to 384-well small volume white detection plate. 2 μL premixed detection solution was added and the plate was covered with sealer. To prepare the detection solution, d2 conjugated-phospho-RB antibody and Eu-cryptate conjugated phosphor-RB antibody were diluted into detection buffer following manufacturer's instruction. Detection plates were incubated for 4 h at room temperature and read on ClarioStar (BMG Labtech) in TR-FRET mode (665 nM and 620 nM). The TR-FRET ratio (665 nM/620 nM) was plotted against the compound concentration and normalized to DMSO controls. Half maximal inhibition concentration (IC50) values were calculated with a four-parameter logistic fit using GraphPad Prism (version 8; La Jolla, CA).

Compound | IC50
CO[C@@H]1CN(S(=O)(=O)c2cccc(N3CCC(CN4CCC(c5ccc6c(N7CCC(=O)NC7=O)nn(C)c6c5)CC4)CC3)c2)CC[C@H]1Nc1ncc(Cl)cn1 (racemic) [Example 219, Rac-1-(6-(1-((1-(3-(((3R,4R)-4-((5-chloropyrimidin-2-yl)amino)-3-methoxypiperidin-1-yl)sulfonyl)phenyl)piperidin-4-yl)methyl)piperidin-4-yl)-1-methyl-1H-indazol-3-yl)dihydropyrimidine-2,4(1H,3H)-dione] | > 2500 nM
Cn1nc(N2CCC(=O)NC2=O)c2ccc(C3CCN(CC4CCN(c5cccc(S(=O)(=O)N6CC7CCC(C6)C7Nc6ncc(Cl)cn6)c5)CC4)CC3)cc21 (racemic) [Example 229, Rac-1-(6-(1-((1-(3-(((1R,5S,8s)-8-((5-chloropyrimidin-2-yl)amino)-3-azabicyclo[3.2.1]octan-3-yl)sulfonyl)phenyl)piperidin-4-yl)methyl)piperidin-4-yl)-1-methyl-1H-indazol-3-yl)dihydropyrimidine-2,4(1H,3H)-dione] | > 2500 nM
Cn1nc(N2CCC(=O)NC2=O)c2ccc(C3CCN(Cc4cccc(S(=O)(=O)N5CCC(Nc6ncc(C(F)(F)F)cn6)CC5)c4)CC3(F)F)cc21 (stereo not drawn) [Example 3, 1-(6-(3,3-difluoro-1-(3-((4-((5-(trifluoromethyl)pyrimidin-2-yl)amino)-piperidin-1-yl)sulfonyl)benzyl)-piperidin-4-yl)-1-methyl-1H-indazol-3-yl)dihydropyrimidine-2,4(1H,3H)-dione] | 100 to 500 nM
Cn1nc(N2CCC(=O)NC2=O)c2ccc(N3CC4(CN(Cc5cccc(S(=O)(=O)N6CCC(Nc7ncc(C(F)(F)F)cn7)CC6)c5)C4)C3)cc21 [Example 4, 1-(1-methyl-6-(6-(3-((4-((5-(trifluoromethyl)pyrimidin-2-yl)amino)piperidin-1-yl)sulfonyl)benzyl)-2,6-diazaspiro[3.3]heptan-2-yl)-1H-indazol-3-yl)dihydropyrimidine-2,4(1H,3H)-dione] | 100 to 500 nM
O=C1CCN(c2nn(CC(F)(F)F)c3cc(C4CCN(Cc5cccc(S(=O)(=O)N6CCC(Nc7ncc(C(F)(F)F)cn7)CC6)c5)CC4)ccc23)C(=O)N1 [Example 5, 1-(1-(2,2,2-trifluoroethyl)-6-(1-(3-((4-((5-(trifluoromethyl)pyrimidin-2-yl)amino)-piperidin-1-yl)sulfonyl)benzyl)-piperidin-4-yl)-1H-indazol-3-yl)dihydropyrimidine-2,4(1H,3H)-dione] | 100 to 500 nM
Cc1ncsc1-c1ccc([C@H](C)NC(=O)[C@@H]2C[C@@H](O)CN2C(=O)[C@@H](NC(=O)CC2CCN(Cc3cccc(S(=O)(=O)N4CCC(Nc5ncc(C(F)(F)F)cn5)CC4)c3)CC2)C(C)(C)C)cc1 [Example 9, (2S,4R)-1-((S)-3,3-dimethyl-2-(2-(1-(3-((4-((5-(trifluoromethyl)pyrimidin-2-yl)amino)piperidin-1-yl)sulfonyl)-benzyl)piperidin-4-yl)acetamido)butanoyl)-4-hydroxy-N-((S)-1-(4-(4-methylthiazol-5-yl)phenyl)ethyl)pyrrolidine-2-carboxamide] | 100 to 500 nM
Cn1nc(N2CCC(=O)NC2=O)c2ccc(C3CCN(Cc4cccc(S(=O)(=O)[C@H]5CC[C@H](Nc6ncc(C(F)(F)F)cn6)CC5)c4)CC3)cc21 [Example 10, 1-(1-methyl-6-(1-(3-(((1r,4r)-4-((5-(trifluoromethyl)pyrimidin-2-yl)amino)-cyclohexyl)sulfonyl)benzyl)piperidin-4-yl)-1H-indazol-3-yl)dihydropyrimidine-2,4(1H,3H)-dione] | 500 to 2500 nM
Cn1nc(N2CCC(=O)NC2=O)c2ccc(N3CCN(Cc4cccc(S(=O)(=O)N5CCC(Nc6ncc(C(F)(F)F)cn6)CC5)c4)CC3)cc21 [Example 12, 1-(1-methyl-6-(4-(3-((4-((5-(trifluoro-methyl)pyrimidin-2-yl)amino)piperidin-1-yl)sulfonyl)benzyl)piperazin-1-yl)-1H-indazol-3-yl)dihydropyrimidine-2,4(1H,3H)-dione] | 100 to 500 nM
Cn1nc(N2CCC(=O)NC2=O)c2ccc(C3CCN(Cc4cccc(S(=O)(=O)N5CCC(Nc6ncc(C(F)F)cn6)CC5)c4)CC3)cc21 [Example 13, 1-(6-(1-(3-((4-((5-(difluoromethyl)-pyrimidin-2-yl)amino)piperidin-1-yl)sulfonyl)benzyl)piperidin-4-yl)-1-methyl-1H-indazol-3-yl)dihydropyrimidine-2,4(1H,3H)-dione] | 100 to 500 nM
Cn1nc(N2CCC(=O)NC2=O)c2ccc(C3CCN(CC4CCN(S(=O)(=O)N5CCC(Nc6ncc(C(F)(F)F)cn6)CC5)CC4)CC3)cc21 [Example 15, 1-(1-methyl-6-(1-((1-((4-((5-(trifluoro-methyl)pyrimidin-2-yl)amino)piperidin-1-yl)sulfonyl)piperidin-4-yl)methyl)piperidin-4-yl)-1H-indazol-3-yl)dihydropyrimidine-2,4(1H,3H)-dione] | 500 to 2500 nM
Cn1nc(N2CCC(=O)NC2=O)c2ccc(C3CCN(Cc4cccc(S(=O)(=O)N5CCC(Nc6ncc(C(C)(F)F)cn6)CC5)c4)CC3)cc21 [Example 17, 1-(6-(1-(3-((4-((5-(1,1-difluoroethyl)-pyrimidin-2-yl)amino)piperidin-1-yl)sulfonyl)benzyl)piperidin-4-yl)-1-methyl-1H-indazol-3-yl)dihydropyrimidine-2,4(1H,3H)-dione] | > 2500 nM
Cn1nc(N2CCC(=O)NC2=O)c2ccc(C3CCN(CC4CCN(S(=O)(=O)c5ccc(Nc6ncc(C(F)(F)F)cn6)c(F)c5)CC4)CC3)cc21 [Example 18, 1-(6-(1-((1-((3-fluoro-4-((5-(trifluoro-methyl)pyrimidin-2-yl)amino)phenyl)-sulfonyl)piperidin-4-yl)methyl)piperidin-4-yl)-1-methyl-1H-indazol-3-yl)dihydropyrimidine-2,4(1H,3H)-dione] | 500 to 2500 nM
Cn1nc(N2CCC(=O)NC2=O)c2ccc(C3CCN(CC4CCN(S(=O)(=O)[C@H]5CC[C@H](Nc6ncc(C(F)(F)F)cn6)CC5)CC4)CC3)cc21 [Example 20, 1-(1-methyl-6-(1-((1-(((1r,4r)-4-((5-(trifluoromethyl)pyrimidin-2-yl)amino)-cyclohexyl)sulfonyl)piperidin-4-yl)methyl)-piperidin-4-yl)-1H-indazol-3-yl)-dihydropyrimidine-2,4(1H,3H)-dione] | 500 to 2500 nM
O=C1CCN(c2nn(CC(F)(F)F)c3cc(C4CCN(Cc5cccc(S(=O)(=O)N6CCC(Nc7ncc(Cl)cn7)CC6)c5)CC4)ccc23)C(=O)N1 [Example 21] | 500 to 2500 nM
O=C1CCC(N2C(=O)c3cc(F)c(N4CCN(Cc5cccc(S(=O)(=O)N6CCC(Nc7ncc(Cl)cn7)CC6)c5)CC4)cc3C2=O)C(=O)N1 (stereo not drawn) [Example 22, 5-(4-(3-((4-((5-chloropyrimidin-2-yl)amino)piperidin-1-yl)sulfonyl)benzyl)-piperazin-1-yl)-2-(2,6-dioxopiperidin-3-yl)-6-fluoroisoindoline-1,3-dione] | 500 to 2500 nM
Cn1nc(N2CCC(=O)NC2=O)c2ccc(N3CCN(Cc4cccc(S(=O)(=O)N5CCC(Nc6ncc(Cl)cn6)CC5)c4)CC3)cc21 [Example 25, 1-(6-(4-(3-((4-((5-chloropyrimidin-2-yl)amino)piperidin-1-yl)sulfonyl)benzyl)-piperazin-1-yl)-1-methyl-1H-indazol-3-yl)dihydropyrimidine-2,4(1H,3H)-dione] | 100 to 500 nM
Cn1nc(N2CCC(=O)NC2=O)c2ccc(C3CCN(Cc4cccc(S(=O)(=O)N5CCC(Nc6ncc(F)cn6)CC5)c4)CC3)cc21 [Example 26, 1-(6-(1-(3-((4-((5-fluoropyrimidin-2-yl)amino)piperidin-1-yl)sulfonyl)benzyl)-piperidin-4-yl)-1-methyl-1H-indazol-3-yl)dihydropyrimidine-2,4(1H,3H)-dione] | > 2500 nM
Cn1nc(N2CCC(=O)NC2=O)c2ccc(C3CCN(C(c4cccc(S(=O)(=O)N5CCC(Nc6ncc(Cl)cn6)CC5)c4)C(F)F)CC3)cc21 (stereo not drawn) [Example 30, 1-(6-(1-(1-(3-((4-((5-chloropyrimidin-2-yl)amino)piperidin-1-yl)sulfonyl)phenyl)-2,2-difluoroethyl)piperidin-4-yl)-1-methyl-1H-indazol-3-yl)dihydropyrimidine-2,4(1H,3H)-dione] | 500 to 2500 nM
Cn1nc(N2CCC(=O)NC2=O)c2ccc(C3CCN(CCC4CCCN(S(=O)(=O)N5CCC(Nc6ncc(C(F)(F)F)cn6)CC5)C4)CC3)cc21 (stereo not drawn) [Example 32, 1-(1-methyl-6-(1-(2-(1-((4-((5-(trifluoromethyl)pyrimidin-2-yl)amino)-piperidin-1-yl)sulfonyl)piperidin-3-yl)ethyl)piperidin-4-yl)-1H-indazol-3-yl)dihydropyrimidine-2,4(1H,3H)-dione] | 500 to 2500 nM
O=C1CCC(N2Cc3cc(N4CCN(Cc5cccc(S(=O)(=O)N6CCC(Nc7ncc(Cl)cn7)CC6)c5)CC4)c(F)cc3C2=O)C(=O)N1 (stereo not drawn) [Example 34, 3-(5-(4-(3-((4-((5-chloropyrimidin-2-yl)amino)piperidin-1-yl)sulfonyl)benzyl)-piperazin-1-yl)-6-fluoro-1-oxoisoindolin-2-yl)piperidine-2,6-dione] | 100 to 500 nM
Cn1nc(N2CCC(=O)NC2=O)c2ccc(C3CCN(CCCC4CCN(S(=O)(=O)N5CCC(Nc6ncc(C(F)(F)F)cn6)CC5)CC4)CC3)cc21 [Example 36] | 500 to 2500 nM
